Source: US20220324835A1 (Nurix Therapeutics, Inc., priority 2018, published 2022)

How the values were obtained:
Cbl-b [1] = molecular target: T1, Cbl-b (Homo sapiens, UniProt Q13191); assay: Cbl-b inhibition assay (Cbl-b activity assay, FRET, Biological Example 1; 100 mM NaCl, 60 nM Src kinase); format: biochemical; conditions: upper bound stated in text lists; read-out: IC50 values in the Cbl-b inhibition assay of Biological Example 1
Procedure, shortened: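 Inhibitor activity is measured as reduced terbium-to-fluorescein FRET between streptavidin-terbium on biotinylated Cbl-b and Bodipy-fluorescein ubiquitin carried by an irreversible UbcH5B-Ub conjugate, binding of which depends on Src phosphorylation of Cbl-b.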

T-cell [2] = assay: IL-2 secretion from T-cells co-stimulated with anti-CD3 and anti-CD28 antibody (Biological Example 2); format: cell-based, human; conditions: Homo sapiens, T-cell, fold change over baseline (anti-CD3/anti-CD28 stimulated T-cells without inhibitor), read-out: IL-2 secretion Anti-CD3/Anti-CD28 stimulation; for fold induction at 0.3 µM: 0.3 μM Cbl-b inhibitor; for fold induction at 1 µM: 1 μM Cbl-b inhibitor
Procedure, shortened: (§1)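 No assay protocol given; T-cells stimulated with anti-CD3 alone or anti-CD3 plus anti-CD28, with or without Cbl-b inhibitor. Activation read as IL-2 secretion or CD25 surface staining, expressed as fold over baseline from uninhibited cells […].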

T-cell [3] = assay: IL-2 secretion from T-cells stimulated with anti-CD3 antibody alone (Biological Example 2); format: cell-based, human; conditions: Homo sapiens, T-cell; 1 μM Cbl-b inhibitor; fold change over baseline (anti-CD3/anti-CD28 stimulated T-cells without inhibitor); read-out: IL-2 secretion Anti-CD3 stimulation
T-cell [4] = assay: CD25 cell surface staining on T-cells co-stimulated with anti-CD3 and anti-CD28 antibody (Biological Example 2); format: cell-based, human; conditions: Homo sapiens, T-cell, fold change over baseline (anti-CD3/anti-CD28 stimulated T-cells without inhibitor), read-out: CD25 staining Anti-CD3/Anti-CD28 stimulation; for fold induction at 0.3 µM: 0.3 μM Cbl-b inhibitor; for fold induction at 1 µM: 1 μM Cbl-b inhibitor
Procedure, shortened: as §1

T-cell [5] = assay: CD25 cell surface staining on T-cells stimulated with anti-CD3 antibody alone (Biological Example 2); format: cell-based, human; conditions: Homo sapiens, T-cell; 1 μM Cbl-b inhibitor; fold change over baseline (anti-CD3/anti-CD28 stimulated T-cells without inhibitor); read-out: CD25 staining Anti-CD3 stimulation
Cbl-b [6] = molecular target: T1, Cbl-b; assay: Cbl-b activity assay (Cbl-b inhibition assay), TR-FRET of Cbl-b interaction with UbcH5B-Ub; format: biochemical; conditions: assay buffer with 100 mM NaCl, 60 nM Src kinase; read-out: Cbl-b activity IC50
Procedure, shortened: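 TR-FRET readout of Cbl-b binding to Bodipy-fluorescein N-terminally labeled Ub conjugated to UbcH5B C85K, measured with compound present. After compound incubation, 60 nM Src kinase with 1 mM ATP and 5 mM MgCl2 (final) was added for 1.5 h, then a further 1 h incubation; asterisked values used 50 mM NaCl buffer and 30 nM Src.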

T1 sequence (Q13191 36-427): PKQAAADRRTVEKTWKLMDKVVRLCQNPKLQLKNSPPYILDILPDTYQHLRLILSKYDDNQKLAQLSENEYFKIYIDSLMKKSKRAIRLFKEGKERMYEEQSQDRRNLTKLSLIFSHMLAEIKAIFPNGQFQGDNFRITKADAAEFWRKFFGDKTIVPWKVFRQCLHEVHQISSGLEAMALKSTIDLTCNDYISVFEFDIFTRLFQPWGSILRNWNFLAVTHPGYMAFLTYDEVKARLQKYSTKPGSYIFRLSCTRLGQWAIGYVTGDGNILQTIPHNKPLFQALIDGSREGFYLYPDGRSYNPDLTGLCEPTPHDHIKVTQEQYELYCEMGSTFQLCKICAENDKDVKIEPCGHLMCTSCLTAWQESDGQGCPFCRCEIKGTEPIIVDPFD

Structure (SMILES)	IC50 (Cbl-b [1])	fold induction at 0.3 µM (T-cell [2])	fold induction at 1 µM (T-cell [2])	fold induction at 1 µM (T-cell [3])	fold induction at 0.3 µM (T-cell [4])	fold induction at 1 µM (T-cell [4])	fold induction at 1 µM (T-cell [5])	IC50 (Cbl-b [6])
CN1C[C@H]2CC[C@@H](C1)N2c1cc(C(=O)Nc2cccc(C3(Cc4nncn4C)COC3)c2)nc(C2CC2)n1 [Example 573, 2-Cyclopropyl-N-(3-(3-((4-methyl-4H-1,2,4-triazol-3-yl)methyl)oxetan-3-yl)phenyl)-6-((1R,5S)-3-methyl-3,8-diazabicyclo[3.2.1]octan-8-yl)pyrimidine-4-carboxamide]	≤ 100 nM	5 to 7.5	> 7.5	> 0.201	1.31 to 1.5	1.51 to 1.75	> 1	< 100 nM
Cn1cnnc1CC1(c2cccc(NC(=O)c3cc(CN4CC[C@H](F)C4)nc(C4CC4)n3)c2)COC1 [Example 574, (S)-2-Cyclopropyl-6-((3-fluoropyrrolidin-1-yl)methyl)-N-(3-(3-((4-methyl-4H-1,2,4-triazol-3-yl)methyl)oxetan-3-yl)phenyl)pyrimidine-4-carboxamide]	≤ 100 nM	> 7.5	> 7.5	> 0.201	1.51 to 1.75	1.51 to 1.75	> 1	< 100 nM
Cn1cnnc1CC1(c2cccc(N3Cc4c(ccc(F)c4C4CC4)C3=O)c2)COC1 [Example 577, 4-Cyclopropyl-5-fluoro-2-(3-(3-((4-methyl-4H-1,2,4-triazol-3-yl)methyl)oxetan-3-yl)phenyl)isoindolin-1-one]	≤ 300 nM	1.01 to 2.5	1.01 to 2.5	0.051 to 0.1	1.01 to 1.3	1.01 to 1.3	0.601 to 0.8	100 to 300 nM
Cn1cnnc1CC1(c2cccc(N3Cc4c(cc(CN5CC[C@H](F)C5)nc4C4CC4)C3=O)c2)COC1 [Example 578, (S)-4-cyclopropyl-6-((3-fluoropyrrolidin-1-yl)methyl)-2-(3-(3-((4-methyl-4H-1,2,4-triazol-3-yl)methyl)oxetan-3-yl)phenyl)-2,3-dihydro-1H-pyrrolo[3,4-c]pyridin-1-one]	≤ 100 nM	2.51 to 5	5 to 7.5	0.051 to 0.1	1.01 to 1.3	1.01 to 1.3	0.801 to 1	< 100 nM
Cn1cnnc1CC1(c2cccc(N3Cc4c(cc(CN5CCCC5)nc4C4CC4)C3=O)c2)COC1 [Example 579, 4-Cyclopropyl-2-(3-(3-((4-methyl-4H-1,2,4-triazol-3-yl)methyl)oxetan-3-yl)phenyl)-6-(pyrrolidin-1-ylmethyl)-2,3-dihydro-1H-pyrrolo[3,4-c]pyridin-1-one]	≤ 100 nM	1.01 to 2.5	2.51 to 5	< 0.05	1.01 to 1.3	1.01 to 1.3	< 0.6	< 100 nM
Cn1cnnc1CC1(c2cccc(N3Cc4c(cc(C(N5CCCC5)C(F)(F)F)cc4C(F)(F)F)C3=O)c2)COC1 (stereo not drawn) [Example 581, 2-(3-(3-((4-Methyl-4H-1,2,4-triazol-3-yl)methyl)oxetan-3-yl)phenyl)-6-(2,2,2-trifluoro-1-(pyrrolidin-1-yl)ethyl)-4-(trifluoromethyl)isoindolin-1-one]	≤ 100 nM	1.01 to 2.5	2.51 to 5	0.051 to 0.1	1.01 to 1.3	1.31 to 1.5	0.801 to 1	< 100 nM
Cn1cnnc1CC1(c2cccc(N3Cc4c(cc(N5CCNC6(CC6)C5)cc4C(F)(F)F)C3=O)c2)COC1 [Example 582, 2-(3-(3-((4-Methyl-4H-1,2,4-triazol-3-yl)methyl)oxetan-3-yl)phenyl)-6-(4,7-diazaspiro[2.5]octan-7-yl)-4-(trifluoromethyl)isoindolin-1-one]	≤ 100 nM	> 7.5	> 7.5	0.101 to 0.15	1.31 to 1.5	1.31 to 1.5	> 1	< 100 nM
CN1CCN(c2cc3c(c(C(F)(F)F)c2)CN(c2cccc(C4(Cc5nncn5C)COC4)c2)C3=O)CC12CC2 [Example 583, 2-(3-(3-((4-Methyl-4H-1,2,4-triazol-3-yl)methyl)oxetan-3-yl)phenyl)-6-(4-methyl-4,7-diazaspiro[2.5]octan-7-yl)-4-(trifluoromethyl)isoindolin-1-one]	≤ 100 nM	2.51 to 5	5 to 7.5	0.151 to 0.2	1.31 to 1.5	1.51 to 1.75	> 1	< 100 nM
CC(c1cc2c(c(C3CC3)n1)CN(c1cccc(C3(Cc4nncn4C)COC3)c1)C2=O)N1CCCC1 (stereo not drawn) [Example 584, 4-Cyclopropyl-2-(3-(3-((4-methyl-4H-1,2,4-triazol-3-yl)methyl)oxetan-3-yl)phenyl)-6-(l-(pyrrolidin-1-yl)ethyl)-2,3-dihydro-1H-pyrrolo[3,4-c]pyridin-1-one]	≤ 100 nM	1.01 to 2.5	2.51 to 5	< 0.05	1.01 to 1.3	1.01 to 1.3	0.601 to 0.8	< 100 nM
CC(c1cc2c(c(C3CC3)n1)CN(c1cccc(C3(Cc4nncn4C)COC3)c1)C2=O)N1CCC2(CC2)C1 (stereo not drawn) [Example 585, 6-(1-(5-Azaspiro[2.4]heptan-5-yl)ethyl)-4-cyclopropyl-2-(3-(3-((4-methyl-4H-1,2,4-triazol-3-yl)methyl)oxetan-3-yl)phenyl)-2,3-dihydro-1H-pyrrolo[3,4-c]pyridin-1-one]	≤ 100 nM	2.51 to 5	5 to 7.5	0.051 to 0.1	1.01 to 1.3	1.01 to 1.3	0.801 to 1	< 100 nM
CC(c1cc2c(c(C3CC3)n1)CN(c1cccc(C3(Cc4nncn4C)COC3)c1)C2=O)N1CC2(CC2)C1 (stereo not drawn) [Example 586, 6-(1-(5-Azaspiro[2.3]hexan-5-yl)ethyl)-4-cyclopropyl-2-(3-(3-((4-methyl-4H-1,2,4-triazol-3-yl)methyl)oxetan-3-yl)phenyl)-2,3-dihydro-1H-pyrrolo[3,4-c]pyridin-1-one]	≤ 100 nM	1.01 to 2.5	2.51 to 5	< 0.05	1.01 to 1.3	1.01 to 1.3	0.601 to 0.8	< 100 nM
CC(c1cc2c(c(C3CC3)n1)CN(c1cccc(C3(Cc4nncn4C)COC3)c1)C2=O)N1CCCCC1 (stereo not drawn) [Example 587, 4-Cyclopropyl-2-(3-(3-((4-methyl-4H-1,2,4-triazol-3-yl)methyl)oxetan-3-yl)phenyl)-6-(l-(piperidin-1-yl)ethyl)-2,3-dihydro-1H-pyrrolo[3,4-c]pyridin-1-one]	≤ 100 nM	5 to 7.5	> 7.5	> 0.201	> 1.76	> 1.76	0.601 to 0.8	< 100 nM
